From patent US20120040977A1, “INHIBITORS OF HCV NS5A” (PRESIDIO PHARMACEUTICALS, INC., priority 2009, published 2012)

System: HCV genotype 1b replicon
Assay: HCV replicon assay (HCV 1b_Huh-Luc/Neo-ET cell line, luciferase readout)
Type: cell-based
Settings: Hepatitis C virus; bicistronic genotype 1b replicon in Huh 7 cells, 72 h incubation, luciferase enzyme activity; read-out: Inhibition of HCV genotype 1b
Method: Biological activity of the compounds of the invention was determined using an HCV replicon assay. The HCV 1b_Huh-Luc/Neo-ET cell line persistently expressing a bicistronic genotype 1b replicon in Huh 7 cells was obtained from ReBLikon GMBH. This cell line was used to test compound inhibition using luciferase enzyme activity readout as a measurement of compound inhibition of replicon levels.
On Day 1 (the day after plating cells), each compound is added in triplicate to the cells. Plates are incubated for 72 h prior to determining luciferase levels. Enzyme activity was measured using a Bright-Glo Kit (cat. number E2620) manufactured by Promega Corporation. The following equation was used to generate a percent control value for each compound.
% Control=(Average Compound Value/Average Control)*100
The EC50 value was determined using GraphPad Prism and the following equation:
Y=Bottom+(Top−Bottom)/(1+10̂((LogIC50−X)*HillSlope))
EC50 values of compounds are determined several times in the replicon assay. […]

| SMILES | EC50 |
| --- | --- |
| O=C(N[C@@H](C(=O)N1CCC[C@H]1c1ncc(-c2ccc(Oc3ccc(-c4cnc([C@@H]5CCCN5C(=O)[C@H](NC(=O)C5CC5)c5ccccc5)[nH]4)cc3)cc2)[nH]1)c1ccccc1)C1CC1 [Compound 54] | < 1 nM |
| O=C(N[C@@H](C(=O)N1CCC[C@H]1COc1ccc(-c2ccc(-c3cnc([C@@H]4CCCN4C(=O)[C@H](NC(=O)C4CC4)c4ccccc4)[nH]3)cc2)cc1)c1ccccc1)C1CC1 [Compound 31] | < 1 nM |
| COC(=O)N[C@@H](C(=O)N1CCC[C@H]1C(=O)Nc1ccc(-c2ccc(-c3cnc([C@@H]4CCCN4C(=O)[C@@H](c4ccccc4)N(C)C)[nH]3)cc2)cc1)c1ccccc1 [Compound 59] | < 1 nM |
| CC(C)[C@@H](NC(=O)OC(C)(C)C)C(=O)N1CCC[C@H]1C(=O)Nc1ccc(-c2ccc(-c3cnc([C@@H]4CCCN4C(=O)[C@H](NC(=O)OC(C)(C)C)C(C)C)[nH]3)cc2)cc1 [Compound 15] | 1 to 9.9 nM |
| C[C@@H](NC(=O)[C@@H]1CCCN1C(=O)[C@H](NC(=O)OC(C)(C)C)c1ccccc1)c1ccc(-c2ccc(-c3cnc([C@@H]4CCCN4C(=O)[C@H](NC(=O)OC(C)(C)C)c4ccccc4)[nH]3)cc2)cc1 [Compound 39] | < 1 nM |
| O=C(NCc1ccc(-c2ccc(-c3cnc([C@@H]4CCCN4C(=O)[C@H](NC(=O)N4CCOCC4)c4ccccc4)[nH]3)cc2)cc1)[C@@H]1CCCN1C(=O)[C@H](NC(=O)N1CCOCC1)c1ccccc1 [Compound 44] | 1 to 9.9 nM |
| COC(=O)N[C@@H](C(=O)N1CCC[C@H]1c1ncc(-c2ccc(-c3ccc(C(=O)NC[C@@H]4CCCN4C(=O)[C@@H](c4ccccc4)N4CCCCC4)cc3)cc2)[nH]1)c1ccccc1 [Compound 64] | < 1 nM |
| COC(=O)N[C@H](C(=O)N1CCC[C@H]1CNC(=O)c1ccc(-c2ccc(-c3cnc([C@@H]4CCCN4C(=O)[C@@H](NC(=O)OC)[C@@H](C)OC)[nH]3)cc2)cc1)[C@@H](C)OC [Compound 122] | < 1 nM |
| COC(=O)N[C@@H](C(=O)N1CCC[C@H]1c1ncc(-c2ccc(-c3ccc(C(=O)NC[C@@H]4CCCN4C(=O)[C@H](NC(=O)N4CCN(C)CC4)c4ccccc4)cc3)cc2)[nH]1)c1ccccc1 [Compound 66] | < 1 nM |
| C[C@@H](NC(=O)C1CC1)C(=O)N1CCC[C@H]1c1ncc(-c2ccc(Oc3ccc(-c4cnc([C@@H]5CCCN5C(=O)[C@@H](C)NC(=O)C5CC5)[nH]4)cc3)cc2)[nH]1 [Compound 58] | 10 to 999 nM |
| O=C(NC[C@@H]1CCCN1C(=O)[C@H](NC(=O)C1CC1)c1ccccc1)c1ccc(-c2ccc(-c3cnc([C@@H]4CCCN4C(=O)[C@H](NC(=O)C4CC4)c4ccccc4)[nH]3)cc2)cc1 [Compound 55] | < 1 nM |
| COC(=O)N[C@H](C(=O)N1CCC[C@H]1CNC(=O)c1ccc(-c2ccc(-c3cnc([C@@H]4CCCN4C(=O)[C@@H](NC(=O)OC)C(C)C)[nH]3)nc2)cc1)C(C)C [Compound 90] | 1 to 9.9 nM |
| COC(=O)N[C@H](C(=O)N1CCC[C@H]1CNC(=O)c1ccc(-c2ccc(-c3cnc([C@@H]4CCCN4C(=O)[C@@H](NC(=O)OC)C4CCOCC4)[nH]3)cc2)cc1)C1CCOCC1 [Compound 123] | 1 to 9.9 nM |
| COC(=O)N[C@H](C(=O)N[C@@H](C)c1ncc(-c2ccc(-c3ccc(C(=O)NC[C@@H]4CCCN4C(=O)[C@@H](NC(=O)OC)C(C)C)nc3)cc2)[nH]1)C(C)C [Compound 92] | 1 to 9.9 nM |
| COC(=O)N[C@H](C(=O)N[C@@H](C)c1ncc(-c2ccc(-c3ccc(C(=O)NC[C@@H]4CCCN4C(=O)[C@@H](NC(=O)OC)C(C)C)cc3)cc2)[nH]1)C(C)C [Compound 88] | < 1 nM |
| COC(=O)N[C@H](C(=O)N1CCC[C@H]1C(=O)NCc1ccc(-c2ccc(-c3cnc([C@@H]4CCCN4C(=O)[C@@H](NC(=O)OC)C(C)C)[nH]3)cn2)cc1)C(C)C [Compound 116] | 10 to 999 nM |

| SMILES | EC50 |
| --- | --- |
| C#CC[C@H](NC(=O)OC)C(=O)N1CCC[C@H]1C(=O)NCc1ccc(-c2ccc(-c3cnc([C@@H]4CCCN4C(=O)[C@H](CC#C)NC(=O)OC)[nH]3)cc2)cc1 [Compound 81] | 10 to 999 nM |
| C[C@@H](NC(=O)OC(C)(C)C)C(=O)N1CCOC[C@H]1C(=O)Nc1ccc(-c2ccc(-c3cnc([C@@H]4COCCN4C(=O)[C@@H](C)NC(=O)OC(C)(C)C)[nH]3)cc2)cc1 [Compound 17] | 10 to 999 nM |
| COC(=O)N[C@@H](C(=O)N1CCC[C@H]1C(=O)Nc1ccc(-c2ccc3nc([C@@H]4CCCN4C(=O)[C@H](NC(=O)OC)c4ccccc4)[nH]c3c2)cc1)c1ccccc1 [Compound 74] | < 1 nM |
| O=C(N[C@@H](C(=O)N1CCC[C@H]1C(=O)Nc1ccc(-c2ccc(-c3cnc([C@@H]4CCCN4C(=O)[C@H](NC(=O)C4CC4)c4ccccc4)[nH]3)cc2)cc1)c1ccccc1)C1CC1 [Compound 27] | < 1 nM |
| COC(=O)N[C@H](C(=O)N1CCC[C@H]1C(=O)N[C@H](C)c1ccc(-c2ccc(-c3cnc([C@@H]4CCCN4C(=O)[C@@H](NC(=O)OC)[C@@H](C)OC)[nH]3)cc2)cc1)[C@@H](C)OC [Compound 102] | 10 to 999 nM |
| COC(=O)N[C@@H](C(=O)N1CCC[C@H]1C(=O)NCc1ccc(-c2ccc(-c3cnc([C@@H]4CCCN4C(=O)[C@H](NC(=O)OC)c4ccccc4)[nH]3)cc2)cn1)c1ccccc1 [Compound 120] | < 1 nM |
| C[C@H](NC(=O)[C@@H]1CCCN1C(=O)[C@H](NC(=O)OC(C)(C)C)c1ccccc1)c1ccc(-c2ccc(-c3cnc([C@@H]4CCCN4C(=O)[C@H](NC(=O)OC(C)(C)C)c4ccccc4)[nH]3)cc2)cc1 [Compound 34] | < 1 nM |
| CC(C)[C@@H](NC(=O)C1CC1)C(=O)N1CCC[C@H]1c1ncc(-c2ccc(Oc3ccc(-c4cnc([C@@H]5CCCN5C(=O)[C@H](NC(=O)C5CC5)C(C)C)[nH]4)cc3)cc2)[nH]1 [Compound 53] | 1 to 9.9 nM |
| CC(C)(C)OC(=O)N[C@@H](C(=O)N1CCC[C@H]1COc1ccc(-c2ccc(-c3cnc([C@@H]4CCCN4C(=O)[C@H](NC(=O)OC(C)(C)C)c4ccccc4)[nH]3)cc2)cc1)c1ccccc1 [Compound 30] | < 1 nM |
| COC(=O)N[C@H](C(=O)N1CCC[C@H]1c1ncc(-c2ccc(Oc3cccc(-c4cnc([C@@H]5CCCN5C(=O)[C@@H](NC(=O)OC)C(C)C)[nH]4)c3)cc2)[nH]1)C(C)C [Compound 70] | < 1 nM |
| CC(C)[C@@H](NC(=O)C1CC1)C(=O)N1CCOC[C@H]1C(=O)Nc1ccc(-c2ccc(-c3cnc([C@@H]4COCCN4C(=O)[C@H](NC(=O)C4CC4)C(C)C)[nH]3)cc2)cc1 [Compound 25] | 1 to 9.9 nM |
| COC(=O)N[C@@H](C(=O)N[C@@H](C)c1ncc(-c2ccc(-c3ccc(C(=O)NC[C@@H]4CCCN4C(=O)[C@H](NC(=O)OC)c4ccccc4)cc3)cc2)[nH]1)c1ccccc1 [Compound 89] | < 1 nM |
| CC(C)(C)OC(=O)N[C@@H](C(=O)N1CCC[C@H]1CNC(=O)c1ccc(-c2ccc(-c3cnc([C@@H]4CCCN4C(=O)[C@H](NC(=O)OC(C)(C)C)c4ccccc4)[nH]3)cc2)cc1)c1ccccc1 [Compound 49] | < 1 nM |
| CC(C)[C@@H](NC(=O)C1CC1)C(=O)N1CCC[C@H]1C(=O)Nc1ccc(-c2ccc(-c3cnc([C@@H]4CCCN4C(=O)[C@H](NC(=O)C4CC4)C(C)C)[nH]3)cc2)cc1 [Compound 29] | 1 to 9.9 nM |
| CC(C)[C@@H](NC(=O)C1CC1)C(=O)N1CCC[C@H]1C(=O)Nc1ccc(-c2ccc(-c3cnc([C@@H]4COCCN4C(=O)[C@H](NC(=O)C4CC4)C(C)C)[nH]3)cc2)cc1 [Compound 20] | 1 to 9.9 nM |
